{"source": "ChEMBL document CHEMBL4359925", "about": "“Rational discovery of a highly novel and selective mTOR inhibitor” (Bioorg Med Chem Lett, 2019)", "key": {"[1]": {"test": "Volume of distribution at steady state in mouse at 2.8 mg/kg, iv", "type": "ADME, organism-based", "settings": "in vivo, read-out: Vdss"}, "[2]": {"molecular_target": "Serine/threonine-protein kinase mTOR (Homo sapiens, UniProt P42345)", "test": "Inhibition of human mTOR measured after 30 mins in presence of ATP by Lanthascreen TR-FRET assay"}, "[3]": {"molecular_target": "Phosphatidylinositol 4,5-bisphosphate 3-kinase catalytic subunit alpha isoform (Homo sapiens, UniProt P42336)", "sequence (P42336 whole entry, canonical isoform)": "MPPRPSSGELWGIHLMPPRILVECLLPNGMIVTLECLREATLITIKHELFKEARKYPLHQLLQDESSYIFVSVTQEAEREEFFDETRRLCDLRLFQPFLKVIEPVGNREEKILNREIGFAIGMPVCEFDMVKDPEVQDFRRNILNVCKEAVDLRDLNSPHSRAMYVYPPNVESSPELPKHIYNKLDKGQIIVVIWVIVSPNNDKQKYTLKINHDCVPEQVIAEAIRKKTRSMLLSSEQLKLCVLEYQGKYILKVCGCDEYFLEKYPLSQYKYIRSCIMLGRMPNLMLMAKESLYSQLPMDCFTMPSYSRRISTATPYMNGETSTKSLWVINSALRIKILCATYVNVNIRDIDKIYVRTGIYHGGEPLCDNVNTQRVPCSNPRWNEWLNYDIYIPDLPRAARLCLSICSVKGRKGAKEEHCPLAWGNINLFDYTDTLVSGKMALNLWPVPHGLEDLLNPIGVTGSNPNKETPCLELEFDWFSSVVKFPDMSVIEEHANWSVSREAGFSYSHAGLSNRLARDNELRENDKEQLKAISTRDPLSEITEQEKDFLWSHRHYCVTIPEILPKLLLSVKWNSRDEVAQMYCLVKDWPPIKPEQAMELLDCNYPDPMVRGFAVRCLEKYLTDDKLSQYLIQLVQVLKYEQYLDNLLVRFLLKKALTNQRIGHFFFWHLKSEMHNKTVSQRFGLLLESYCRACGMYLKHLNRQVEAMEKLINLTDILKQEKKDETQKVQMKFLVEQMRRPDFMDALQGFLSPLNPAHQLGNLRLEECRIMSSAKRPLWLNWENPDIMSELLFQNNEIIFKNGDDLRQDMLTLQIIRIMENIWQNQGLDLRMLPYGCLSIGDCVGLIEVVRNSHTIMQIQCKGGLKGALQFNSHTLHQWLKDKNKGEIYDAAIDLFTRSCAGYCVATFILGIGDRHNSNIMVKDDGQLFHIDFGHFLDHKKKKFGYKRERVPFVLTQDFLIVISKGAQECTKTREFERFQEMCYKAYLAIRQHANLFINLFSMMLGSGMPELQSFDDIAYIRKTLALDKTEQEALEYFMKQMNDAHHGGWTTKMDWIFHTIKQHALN", "test": "Inhibition of PI3K alpha (unknown origin)"}, "NCI-H929": {"system": "NCI-H929", "test": "Antiproliferative activity against human NCI-H929 cells", "type": "functional, cell-based"}, "BT-474": {"system": "BT-474", "test": "Antiproliferative activity against human BT474", "type": "functional, cell-based"}, "MCF7": {"system": "MCF7", "test": "Antiproliferative activity against human MCF7", "type": "functional, cell-based"}, "HT-29": {"system": "HT-29", "test": "Antiproliferative activity against human HT-29", "type": "functional, cell-based"}, "HCT-116": {"system": "HCT-116", "test": "Antiproliferative activity against human HCT116", "type": "functional, cell-based"}, "A498": {"system": "A498", "test": "Antiproliferative activity against human A498", "type": "functional, cell-based"}, "A2780": {"system": "A2780", "test": "Antiproliferative activity against human A2780", "type": "functional, cell-based"}, "786-0": {"system": "786-0", "test": "Antitumour activity against human 786-O cells in xenograft model assessed as tumour growth inhibition at 30 mg/kg, qd", "type": "functional, organism-based"}, "A549 [4]": {"system": "A549", "test": "Synergistic antiproliferative activity against human A549 cells harboring LKB1 mutant in presence of erlotinib", "type": "functional, cell-based"}, "NCI-H460 [5]": {"system": "NCI-H460", "test": "Synergistic antiproliferative activity against human H460 cells harboring LKB1 mutant in presence of erlotinib", "type": "functional, cell-based"}, "NCI-H1395 [6]": {"system": "NCI-H1395", "test": "Additive antiproliferative activity against human NCI-H1395 cells harboring LKB1 mutant in presence of erlotinib", "type": "functional, cell-based"}, "NCI-H1650 [7]": {"system": "NCI-H1650", "test": "Additive antiproliferative activity against human NCI-H1650 cells harboring EGFR E746-A750del mutant in presence of erlotinib", "type": "functional, cell-based"}, "NCI-H1975 [8]": {"system": "NCI-H1975", "test": "Additive antiproliferative activity against human NCI-H1975 cells harboring EGFR […]/T790M mutant in presence of erlotinib", "type": "functional, cell-based"}, "NCI-H292 [9]": {"system": "NCI-H292", "test": "Additive antiproliferative activity against human NCI-H292 cells in presence of erlotinib", "type": "functional, cell-based"}, "A549 [10]": {"system": "A549", "test": "Synergistic antiproliferative activity against human A549 cells harboring LKB1 mutant in presence of gemcitabine", "type": "functional, cell-based"}, "NCI-H460 [11]": {"system": "NCI-H460", "test": "Synergistic antiproliferative activity against human H460 cells harboring LKB1 mutant in presence of gemcitabine", "type": "functional, cell-based"}, "NCI-H1395 [12]": {"system": "NCI-H1395", "test": "Additive antiproliferative activity against human NCI-H1395 cells harboring LKB1 mutant in presence of gemcitabine", "type": "functional, cell-based"}, "NCI-H1650 [13]": {"system": "NCI-H1650", "test": "Additive antiproliferative activity against human NCI-H1650 cells harboring EGFR E746-A750del mutant in presence of gemcitabine", "type": "functional, cell-based"}, "NCI-H1975 [14]": {"system": "NCI-H1975", "test": "Additive antiproliferative activity against human NCI-H1975 cells harboring EGFR […]/T790M mutant in presence of gemcitabine", "type": "functional, cell-based"}, "NCI-H292 [15]": {"system": "NCI-H292", "test": "Additive antiproliferative activity against human NCI-H292 cells in presence of gemcitabine", "type": "functional, cell-based"}, "[16]": {"test": "Cmax in mouse at 8.7 mg/kg, po", "type": "ADME, organism-based", "design": "dose 8.7 mg/kg, route oral", "settings": "in vivo"}, "[17]": {"test": "Tmax in mouse at 8.7 mg/kg, po", "type": "ADME, organism-based", "settings": "in vivo"}, "[18]": {"test": "Half-life in mouse at 8.7 mg/kg, po", "type": "ADME, organism-based", "settings": "in vivo"}, "[19]": {"test": "Cmax in rat at 31 mg/kg, po", "type": "ADME, organism-based", "design": "dose 31 mg/kg, route oral", "settings": "in vivo"}, "[20]": {"test": "Tmax in rat at 31 mg/kg, po", "type": "ADME, organism-based", "settings": "in vivo"}, "[21]": {"test": "Half-life in rat at 31 mg/kg, po", "type": "ADME, organism-based", "settings": "in vivo"}, "[22]": {"test": "Cmax in rat at 160 mg/kg, po", "type": "ADME, organism-based", "design": "dose 160 mg/kg, route oral", "settings": "in vivo"}, "[23]": {"test": "Tmax in rat at 160 mg/kg, po", "type": "ADME, organism-based", "settings": "in vivo"}, "[24]": {"test": "Half-life in rat at 160 mg/kg, po", "type": "ADME, organism-based", "settings": "in vivo"}, "[25]": {"test": "Cmax in rat at 30 mg/kg, po", "type": "ADME, organism-based", "design": "dose 30 mg/kg, route oral", "settings": "in vivo"}, "[26]": {"test": "Tmax in rat at 30 mg/kg, po", "type": "ADME, organism-based", "settings": "in vivo"}, "[27]": {"test": "Half-life in rat at 30 mg/kg, po", "type": "ADME, organism-based", "settings": "in vivo"}, "[28]": {"test": "Cmax in dog at 0.45 mg/kg, po", "type": "ADME, organism-based, Canis lupus familiaris", "design": "dose 0.45 mg/kg, route oral", "settings": "in vivo"}, "[29]": {"test": "Tmax in dog at 0.45 mg/kg, po", "type": "ADME, organism-based, Canis lupus familiaris", "settings": "in vivo"}, "[30]": {"test": "Half-life in dog at 0.45 mg/kg, po", "type": "ADME, organism-based, Canis lupus familiaris", "settings": "in vivo"}, "[31]": {"test": "Cmax in rat at 4.9 mg/kg, po", "type": "ADME, organism-based", "design": "dose 4.9 mg/kg, route oral", "settings": "in vivo"}, "[32]": {"test": "Tmax in rat at 4.9 mg/kg, po", "type": "ADME, organism-based", "settings": "in vivo"}, "[33]": {"test": "Half-life in rat at 4.9 mg/kg, po", "type": "ADME, organism-based", "settings": "in vivo"}, "[34]": {"test": "Cmax in rat at 83 mg/kg, po", "type": "ADME, organism-based", "design": "dose 83 mg/kg, route oral", "settings": "in vivo"}, "[35]": {"test": "Tmax in rat at 83 mg/kg, po", "type": "ADME, organism-based", "settings": "in vivo"}, "[36]": {"test": "Half-life in rat at 83 mg/kg, po", "type": "ADME, organism-based", "settings": "in vivo"}, "[37]": {"test": "Cmax in rat at 95 mg/kg, po", "type": "ADME, organism-based", "design": "dose 95 mg/kg, route oral", "settings": "in vivo"}, "[38]": {"test": "Tmax in rat at 95 mg/kg, po", "type": "ADME, organism-based", "settings": "in vivo"}, "[39]": {"test": "Half-life in rat at 95 mg/kg, po", "type": "ADME, organism-based", "settings": "in vivo"}}, "note": "Activity calls are given as the source filed them. No cut-off for these calls is given here.", "data": [{"smiles": "CC(F)(F)CN1C(=O)[C@]2(C)COCCN2c2nc(-c3ccc(NC(=O)NC4CC4)cc3)ncc21", "values": [{"measurement": "Vd", "setting": "[1]", "result": 1.66, "unit": "L/kg"}, {"measurement": "IC50", "setting": "[2]", "result": 12.6, "unit": "nM"}, {"measurement": "IC50", "setting": "[3]", "result": 1260, "unit": "nM"}, {"measurement": "Activity", "setting": "NCI-H929", "result": "Active"}, {"measurement": "Activity", "setting": "BT-474", "result": "Active"}, {"measurement": "Activity", "setting": "MCF7", "result": "Active"}, {"measurement": "Activity", "setting": "HT-29", "result": "Active"}, {"measurement": "Activity", "setting": "HCT-116", "result": "Active"}, {"measurement": "Activity", "setting": "A498", "result": "Active"}, {"measurement": "Activity", "setting": "A2780", "result": "Active"}, {"measurement": "TGI", "setting": "786-0", "result": "Active"}, {"measurement": "Activity", "setting": "A549 [4]", "result": "Active"}, {"measurement": "Activity", "setting": "NCI-H460 [5]", "result": "Active"}, {"measurement": "Activity", "setting": "NCI-H1395 [6]", "result": "Active"}, {"measurement": "Activity", "setting": "NCI-H1650 [7]", "result": "Active"}, {"measurement": "Activity", "setting": "NCI-H1975 [8]", "result": "Active"}, {"measurement": "Activity", "setting": "NCI-H292 [9]", "result": "Active"}, {"measurement": "Activity", "setting": "A549 [10]", "result": "Active"}, {"measurement": "Activity", "setting": "NCI-H460 [11]", "result": "Active"}, {"measurement": "Activity", "setting": "NCI-H1395 [12]", "result": "Active"}, {"measurement": "Activity", "setting": "NCI-H1650 [13]", "result": "Active"}, {"measurement": "Activity", "setting": "NCI-H1975 [14]", "result": "Active"}, {"measurement": "Activity", "setting": "NCI-H292 [15]", "result": "Active"}, {"measurement": "Cmax", "setting": "[16]", "result": 5370, "unit": "ng/mL"}, {"measurement": "Tmax", "setting": "[17]", "result": 4, "unit": "h"}, {"measurement": "half-life", "setting": "[18]", "result": 2.3, "unit": "h"}, {"measurement": "Cmax", "setting": "[19]", "result": "1910 to 2700", "unit": "ng/mL"}, {"measurement": "Tmax", "setting": "[20]", "result": "8 to 19.3", "unit": "h"}, {"measurement": "half-life", "setting": "[21]", "result": "8.7 to 18.6", "unit": "h"}, {"measurement": "Cmax", "setting": "[22]", "result": 7700, "unit": "ng/mL"}, {"measurement": "Tmax", "setting": "[23]", "result": 10, "unit": "h"}, {"measurement": "half-life", "setting": "[24]", "result": 21.4, "unit": "h"}, {"measurement": "Cmax", "setting": "[25]", "result": "1850 to 2400", "unit": "ng/mL"}, {"measurement": "Tmax", "setting": "[26]", "result": "4 to 8", "unit": "h"}, {"measurement": "half-life", "setting": "[27]", "result": "9 to 13.5", "unit": "h"}, {"measurement": "Cmax", "setting": "[28]", "result": 250, "unit": "ng/mL"}, {"measurement": "Tmax", "setting": "[29]", "result": 4, "unit": "h"}, {"measurement": "half-life", "setting": "[30]", "result": 10.3, "unit": "h"}, {"measurement": "Cmax", "setting": "[31]", "result": 1190, "unit": "ng/mL"}, {"measurement": "Tmax", "setting": "[32]", "result": 3.3, "unit": "h"}, {"measurement": "half-life", "setting": "[33]", "result": 5.5, "unit": "h"}, {"measurement": "Cmax", "setting": "[34]", "result": 2370, "unit": "ng/mL"}, {"measurement": "Tmax", "setting": "[35]", "result": 14, "unit": "h"}, {"measurement": "half-life", "setting": "[36]", "result": 5.4, "unit": "h"}, {"measurement": "Cmax", "setting": "[37]", "result": 2610, "unit": "ng/mL"}, {"measurement": "Tmax", "setting": "[38]", "result": 13.3, "unit": "h"}, {"measurement": "half-life", "setting": "[39]", "result": 33.9, "unit": "h"}]}]}
